In patent US4935362A, “BMY-28121, a new antitumor antibiotic” (Bristol-Myers Company, priority 1987, dated 1990):
≈ marks a conversion by molar mass, not a printed value. Like-named read-outs stand apart in the source and are kept apart here.

What was measured:
[1] = tested on: aerobic gram-positive bacteria; format: cell-based
[2] = tested on: Bacteriodes fragilis A22533; format: cell-based
[3] = tested on: Enterobacter cloacae A9659; test: microbe, parasite or virus in culture; format: cell-based
[4] = tested on: Strpetococcus faecalis A9612; format: cell-based
[5] = tested on: Bacteriodes fragilis A22053; format: cell-based
[6] = tested on: Klebsiella pnuemonia D-11; format: cell-based; conditions: D11
[7] = tested on: Bacteriodes fragilis CUH-108; format: cell-based
[8] = tested on: Staphylococcus aureus A15097; format: cell-based
B16 melanoma = test: Antitumor activity in mice, B16 melanoma; format: in vivo, mice (male BDF1 strain); conditions: ip; for T/C % of MST: once daily for 9 days
[9] = tested on: Clostridium perfringens A22787; test: microbe, parasite or virus in culture; format: cell-based
P388 leukemia = format: in vivo, mice (male BDF1 strain); conditions: for T/C % of MST: ip, once daily for 9 days
[10] = tested on: Serratia marcescens A20222; test: microbe, parasite or virus in culture; format: cell-based
[11] = tested on: Propionibacterium acnes A21933; format: cell-based; conditions: Cutibacterium acnes
[12] = tested on: Bacteriodes fragilis A22695; format: cell-based
[13] = tested on: Staphylococcus aureus A20239; format: cell-based
Escherichia coli NIHJ = format: cell-based
[14] = tested on: Bacteriodes fragilis A22534; format: cell-based
[15] = tested on: various gram-positive and anaerobic bacteria; format: cell-based
[16] = tested on: Bacteriodes fragilis A22021; format: cell-based
[17] = tested on: Staphylococcus aureus BX-1633; format: cell-based
[18] = tested on: Micrococcus luteus PCI-1001; test: microbe, parasite or virus in culture; format: cell-based
L1210 leukemia = test: Antitumor activity in mice, L1210 leukemia; format: in vivo, mice (male BDF1 strain); conditions: ip; for T/C % of MST: once daily for 9 days
anaerobic bacteria = format: cell-based
[19] = tested on: Staphylococcus aureus D136; format: cell-based
[20] = tested on: Peptostreptococcus anaerobius A21905; format: cell-based
Proteus vulgaris A9436 = format: cell-based
[21] = tested on: aerobic gram-negative organisms; format: cell-based
[22] = tested on: Morganella morganii A9553; format: cell-based
[23] = tested on: Pseudomonas aeruginosa A9930; format: cell-based
Proteus mirabilis A9554 = format: cell-based
[24] = tested on: Clostridium difficile A21675; format: cell-based; conditions: Clostridioides difficile, GAM agar, 10^7-10^8 inoculum
[25] = tested on: Bacteriodes fragilis A22693; format: cell-based; conditions: GAM agar, 10^7-10^8 inoculum
[26] = tested on: Staphylococcus aureus 52-34; format: cell-based; conditions: 5234
[27] = tested on: Staphylococcus epidermidis A22152; format: cell-based
[28] = tested on: Staphylococcus epidermidis D153; format: cell-based
[29] = tested on: Bacillus subtilis PCI-219; test: microbe, parasite or virus in culture; format: cell-based
[30] = Bacteriodes fragilis A22533, GAM agar, 10^7-10^8 inoculum, read-out: MIC
[31] = Bacteriodes fragilis CUH-108, GAM agar, 10^7-10^8 inoculum, read-out: MIC
[32] = Bacteriodes fragilis A22695, GAM agar, 10^7-10^8 inoculum, read-out: MIC

COc1cccc2c1N[C@H](OC)[C@@H]1CC(/C=C/C(=O)N(C)C)=CN1C2=O [BMY-28121 B, 1,10,11,11a-tetrahydro-9,11-dimethoxy-5H-pyrrolo-[2,1-c][1,4]benzodiazepine-5-one-2-N,N-dimethylacrylamide]
susceptibility of aerobic gram-positive bacteria [1]: moderately susceptible
MIC [2]: 0.8 µg/mL (≈ 2.24 µM)
MIC [3]: > 50 µg/mL
solubility (in ethyl acetate and ethyl ether): slightly soluble
solubility (in methanol, ethanol, chloroform, pyridine, and dimethylformamide): readily soluble
solubility (in n-hexane and water): practically insoluble
MIC [4]: 6.3 µg/mL (≈ 17.6 µM)
MIC [5]: 0.4 µg/mL (≈ 1.12 µM)
MIC [6]: > 50 µg/mL
MIC [7]: 0.4 µg/mL (≈ 1.12 µM)
MIC [8]: 6.3 µg/mL (≈ 17.6 µM)
T/C % of MST (B16 melanoma; 0.13 mg/kg/day): 113%
T/C % of MST (B16 melanoma; 0.25 mg/kg/day): 131%
activity against B16 melanoma (B16 melanoma): marginally active
MIC [9]: 0.4 µg/mL (≈ 1.12 µM)
T/C % of MST (P388 leukemia; 0.008 mg/kg/day, P388 leukemia): 120%
T/C % of MST (P388 leukemia; 0.13 mg/kg/day, P388 leukemia): 200%
T/C % of MST (P388 leukemia; 0.25 mg/kg/day, P388 leukemia): 210%
times more active than mitomycin C in terms of minimum effective dose (P388 leukemia; P388 leukemia, vs mitomycin C): approximately 4 times
antitumor activity against experimental tumors in mice (P388 leukemia; eg. P388 leukemia in mice): marked antitumor activity
MIC [10]: > 50 µg/mL
MIC [11]: 0.4 µg/mL (≈ 1.12 µM)
MIC [12]: 0.4 µg/mL (≈ 1.12 µM)
MIC [13]: 6.3 µg/mL (≈ 17.6 µM)
MIC (Escherichia coli NIHJ): > 50 µg/mL
MIC [14]: 0.4 µg/mL (≈ 1.12 µM)
antibacterial activity [15]: possess antibacterial activity
MIC [16]: 0.2 µg/mL (≈ 0.56 µM)
MIC ([17]; BX1633): 6.3 µg/mL (≈ 17.6 µM)
MIC ([18]; PCI1001): 12.5 µg/mL (≈ 35 µM)
T/C % of MST (L1210 leukemia; 0.13 mg/kg/day): 129%
T/C % of MST (L1210 leukemia; 0.25 mg/kg/day): 129%
therapeutic activity against L1210 leukemia (L1210 leukemia): potent therapeutic activity
inhibition of anaerobic bacteria (anaerobic bacteria): inhibited all of the gram-positive and negative organisms
MIC [19]: 6.3 µg/mL (≈ 17.6 µM)
MIC [20]: 0.2 µg/mL (≈ 0.56 µM)
MIC (Proteus vulgaris A9436): > 50 µg/mL
in vitro activity against aerobic gram-negative organisms [21]: did not show any in vitro activity
MIC [22]: > 50 µg/mL
MIC [23]: > 50 µg/mL
MIC (Proteus mirabilis A9554): > 50 µg/mL

CCC[C@@H]1C[C@@H](C(=O)N[C@@H]([C@H]2O[C@H](SC)[C@H](O)[C@@H](O)[C@H]2O)[C@H](C)Cl)N(C)C1 [Clindamycin]
MIC [2, 30]: 0.1 µg/mL (≈ 0.235 µM)
MIC ([5]; Bacteriodes fragilis A22053, GAM agar, 10^7-10^8 inoculum, read-out: MIC): 0.2 µg/mL (≈ 0.471 µM)
MIC [7, 31]: 100 µg/mL (≈ 235 µM)
MIC [24]: 50 µg/mL (≈ 118 µM)
MIC [12, 32]: 0.1 µg/mL (≈ 0.235 µM)
MIC ([16]; Bacteriodes fragilis A22021, GAM agar, 10^7-10^8 inoculum, read-out: MIC): 0.1 µg/mL (≈ 0.235 µM)
MIC [25]: 0.1 µg/mL (≈ 0.235 µM)

NC[C@H]1O[C@H](O[C@H]2[C@H](O)[C@@H](O[C@H]3O[C@H](CO)[C@@H](O)[C@H](N)[C@H]3O)[C@H](N)C[C@@H]2N)[C@H](O)[C@@H](O)[C@@H]1O [Kanamycin, reference compound]
MIC ([3]; read-out: MIC): 3.1 µg/mL (≈ 6.4 µM)
MIC [4]: 25 µg/mL (≈ 51.6 µM)
MIC [6]: 0.4 µg/mL (≈ 0.826 µM)
MIC ([8]; read-out: MIC): 0.8 µg/mL (≈ 1.65 µM)
MIC [26]: 0.8 µg/mL (≈ 1.65 µM)
MIC [27]: 25 µg/mL (≈ 51.6 µM)
MIC ([10]; read-out: MIC): 3.1 µg/mL (≈ 6.4 µM)
MIC [13]: 100 µg/mL (≈ 206 µM)
MIC (Escherichia coli NIHJ; read-out: MIC): 1.6 µg/mL (≈ 3.3 µM)
MIC [28]: 0.8 µg/mL (≈ 1.65 µM)
MIC ([17]; BX1633, read-out: MIC): 0.8 µg/mL (≈ 1.65 µM)
MIC ([18]; PCI1001): 6.3 µg/mL (≈ 13 µM)
MIC ([19]; read-out: MIC): 0.8 µg/mL (≈ 1.65 µM)
MIC (Proteus vulgaris A9436; read-out: MIC): 0.8 µg/mL (≈ 1.65 µM)
MIC [22]: 6.3 µg/mL (≈ 13 µM)
MIC [23]: 6.3 µg/mL (≈ 13 µM)
MIC (Proteus mirabilis A9554): 6.3 µg/mL (≈ 13 µM)
MIC ([29]; PCI219, read-out: MIC): 0.2 µg/mL (≈ 0.413 µM)

COc1cccc2c1N[C@H](O)[C@@H]1CC(/C=C/C(=O)N(C)C)=CN1C2=O [BMY-28121 A]
MIC [3]: > 50 µg/mL
MIC [4]: 12.5 µg/mL (≈ 36.4 µM)
MIC ([5]; read-out: MIC): 0.8 µg/mL (≈ 2.33 µM)
MIC [6]: > 50 µg/mL
MIC ([7]; read-out: MIC): 0.8 µg/mL (≈ 2.33 µM)
MIC [8]: 12.5 µg/mL (≈ 36.4 µM)
MIC [26]: 3.1 µg/mL (≈ 9.03 µM)
antitumor activity against experimental tumors in mice (P388 leukemia; mouse, in vivo): marked antitumor activity
times more active than mitomycin C in terms of minimum effective dose (P388 leukemia; mouse, in vivo): approximately 4 times
MIC [10]: > 50 µg/mL
MIC ([11]; read-out: MIC): 0.4 µg/mL (≈ 1.16 µM)
MIC [13]: 12.5 µg/mL (≈ 36.4 µM)
MIC (Escherichia coli NIHJ): 50 µg/mL (≈ 146 µM)
MIC [28]: 3.1 µg/mL (≈ 9.03 µM)
antibacterial activity [15]: possess antibacterial activity
MIC ([16]; read-out: MIC): 0.8 µg/mL (≈ 2.33 µM)
MIC ([17]; BX1633): 12.5 µg/mL (≈ 36.4 µM)
MIC ([18]; PCI1001): 12.5 µg/mL (≈ 36.4 µM)
MIC ([20]; read-out: MIC): 0.4 µg/mL (≈ 1.16 µM)
MIC (Proteus vulgaris A9436): > 50 µg/mL
in vitro activity against aerobic gram-negative organisms [21]: did not show any in vitro activity
MIC [22]: > 50 µg/mL
MIC [23]: > 50 µg/mL
MIC (Proteus mirabilis A9554): > 50 µg/mL

CO[C@@]12[C@H](COC(N)=O)C3=C(C(=O)C(C)=C(N)C3=O)N1C[C@@H]1N[C@@H]12 [Mitomycin C, reference compound]
T/C % of MST (B16 melanoma; 0.5 mg/kg/day): 164%
T/C % of MST (B16 melanoma; 1 mg/kg/day): 191%
T/C % of MST (P388 leukemia; 0.13 mg/kg/day, P388 leukemia): 150%
T/C % of MST (P388 leukemia; 0.25 mg/kg/day, P388 leukemia): 180%
T/C % of MST (P388 leukemia; 0.5 mg/kg/day, P388 leukemia): 240%
T/C % of MST (P388 leukemia; 1 mg/kg/day, P388 leukemia): 450%
T/C % of MST (L1210 leukemia; 0.13 mg/kg/day): 129%
T/C % of MST (L1210 leukemia; 0.25 mg/kg/day): 129%
T/C % of MST (L1210 leukemia; 0.5 mg/kg/day): 141%
T/C % of MST (L1210 leukemia; 1 mg/kg/day): 141%

CC1(C)S[C@@H]2[C@H](NC(=O)[C@H](N)c3ccccc3)C(=O)N2[C@H]1C(=O)O [Ampicillin, reference compound]
MIC [2, 30]: > 100 µg/mL
MIC [7, 31]: 50 µg/mL (≈ 143 µM)
MIC [12, 32]: > 100 µg/mL
MIC ([14]; Bacteriodes fragilis A22534, GAM agar, 10^7-10^8 inoculum, read-out: MIC): > 100 µg/mL
MIC ([18]; PCI1001, read-out: MIC): < 0.0063 µg/mL
MIC ([29]; PCI219): 0.025 µg/mL (≈ 0.0715 µM)
